Laboratory results: patent publication US7083969B2, “Serratia marcescens strain” (Korea Research Institute of Bioscience and Biotechnology, priority 1997, dated 2006)

Experiments:
T lymphocytes [1] = assay: T cell-dependent immune response in vivo (antibody producing cells after sheep red blood cell immunization); design: species or system mice; details: 100 mg/kg; 4 days after immunization
Source text: (§1) Germ-free test animals, mice BDF1 and B6C3F1, obtained from Genetic Resources Center, Korean Research Institute of Bioscience and Biotechnology in the Korean Institute of Science and Technology, were used for the assay of the immunosuppressive activity of prodigiosin. […] At such concentrations as show no cytotoxic effects, prodigiosin cannot suppress the immune response of B lymphocytes. […] This selective immunosuppression for T lymphocytes is not ascribed to the selective cytotoxicity for T lymphocytes. The same immunosuppression results as in the ex vivo experiments were obtained in in vivo experiments. When T lymphocyte activity was measured by use of a graft versus host reaction and a T cell-dependent antibody producing reaction, the prodigiosin suppressed the immune response, but exerted no toxicity on animals. Therefore, the immunosuppressive activity of the prodigiosin is thought to be attributed to the selective suppression for T lymphocyte activity.
(§2) A T cell-dependent immune response reaction was used to assess the influence of prodigiosin on T lymphocytes in vivo. Test animals were immunized with sheep red blood cells by peritoneal injection. 4 days after the immunization, the number of the antibody producing cells was counted. Prodigiosin was peritoneally injected everyday. Based on the number of the […] cells in the non-treated animals, the influence of prodigiosin on T lymphocytes in vivo was assessed as percentage. Also, the weight ratio of the spleen to the body was measured to assay the toxicity of prodigiosin to the animals. Cyclophosphamide was used as a positive control.

T lymphocytes [2] = assay: Graft versus host reaction in vivo (lymphatic node weight); design: species or system BDF1 mice; details: 100 mg/kg peritoneally for five days; sixth day after transplantation
Source text: as §1
(§3) A graft versus host reaction was utilized for the in vivo assay of prodigiosin's immunosuppression. The graft versus host reaction enables an assessment of the immune response of T lymphocytes. On the sixth day after transplantation of the T lymphocytes of BDF1 mice different in histocompatibility antigen, the lymphatic nodes were measured for weight, thereby assessing the immune response of T lymphocyte to the grafted heteroantigens. The prodigiosin was peritoneally injected at a dose of 30–100 mg per kg of body weight for five days while cyclophosphamide, as a positive control, was peritoneally injected at a dose of 100 mg/kg for five days. The body weights of the injected mice were measured to compare the toxicity of prodigiosin with that of cyclophosphamide. […] As for the body weight, it was not changed in the mice injected with prodigiosin at an effective concentration.

[3] = Weight ratio of the spleen to the body (toxicity); assay type: in vivo, mice
Experimental: as §2

[4] = Body weight of injected mice in graft versus host experiment (toxicity); assay type: in vivo
Experimental: as §3

CD8 T lymphocytes = details: known; cited from earlier work
T lymphocytes [5] = details: known; cited from earlier work

For `O=P1(N(CCCl)CCCl)NCCCO1` (centres unmarked) [Cyclophosphamide, reference compound], the “Immune Response (%)” value (T lymphocytes [1]) was 7%, the “Wt. (mg) of Lymphatic node” value (T lymphocytes [2]) was 0.06 mg and the “Wt. Ratio of spleen/body (%)” value ([3]; 100 mg/kg) was 26%. The “toxicity judged by weight ratio of the spleen to the body” value ([3]; at effective concentrations) was “very toxic”, the “Body weight” value ([4]; 100 mg/kg peritoneally for five days) was 18 g and the “body weight change” value ([4]; at an effective concentration) was “loss of body weight”.

For `CCCCCCCCCCCc1ccc(/C=C2\N=C(c3ccc[nH]3)C=C2OC)[nH]1` [Prodigiosin 25-C, prodigiosin 25-C], the “suppression of CD8 T lymphocytes” value (CD8 T lymphocytes) is given as “suppressed” and the “proliferation of T lymphocytes” value (T lymphocytes [5]) is given as “suppress”.
